Here are results for 71 molecules from paper PMC7822874, “Chemoprotective antimalarials identified through quantitative high-throughput screening of Plasmodium blood and liver stage parasites” (Scientific Reports, 2021).

The assay has as its system Plasmodium falciparum Dd2 asexual blood stage parasites. In words: microbe, parasite or virus in culture. Also on record: species or system Plasmodium falciparum Dd2 in human erythrocytes; single determination (one 11-point concentration-response curve). The conditions noted are these: Plasmodium falciparum, DD2, Erythrocyte, 72 h; read-out: AC50.
For orientation: AC50 means the concentration giving half of the maximal activity seen. As for `Cc1noc2c(NC3CCN(C)CC3)cc(-c3cccc(C(F)(F)F)c3)nc12` [NCGC00411487-01], the AC50 was determined as 13.7 µM. In the case of `Cc1ccc(N(C)C2=NC(=O)CS2)cc1Cl` [MLS001164579-01], the AC50 was 9.44 µM. For `Cc1ccc(CN2CCc3oc(C)c(C(=O)NCCN4CCCCC4)c3C2)cc1` [NCGC00471970-01], the AC50 was found to be 10.6 µM.

Regarding `O=C(CC[S+](=O)([O-])c1cc(Br)cc2c1N(C(=O)C1CC1)CC2)N1CCN(c2cccc(Cl)c2)CC1` [NCGC00107190-01], the AC50 worked out at 13.3 µM.

As for `CC(C)(C)n1nnnc1C(c1cc2cc3c(cc2[nH]c1=O)OCO3)N1CCN(c2ccccc2)CC1` (centres unmarked) [MLS000072810-01], the AC50 is 7.5 µM.

`COCC1CN(Cc2cccc(C(F)(F)F)c2)CC12CCNCC2` (centres unmarked) [NCGC00461834-01]: the AC50 was 7.5 µM.

With `CCOc1cc(C(=O)Nc2ccc3nc(Nc4cccc(Cl)c4)cc(C)c3c2)cc(OCC)c1OCC` [NCGC00124408-01], the concentration at half-maximal activity (AC50) is 1.88 µM. As for `CCc1c(C)c(C#N)c2nc3ccccc3n2c1NCC1CCCO1` (centres unmarked) [MLS000556827-01], the AC50 turned out to be 2.99 µM.

Turning to `COc1cc2c(C(=O)N3CCN(c4cc(Cl)ccc4C)CC3)cn(CC(C)C)c(=O)c2cc1OC` [NCGC00103751-01], the AC50 stood at 15 µM. In the case of `CCOc1ccc(CCNC(=O)Nc2ccccc2)cc1OCC` [MLS001197603-01], the AC50 worked out at 5.31 µM. As for `O=C1CC2(CCN(CC3CCCCC3)CC2)Oc2cc(Cl)ccc21` [NCGC00476867-01], the AC50 amounted to 1.5 µM. As for `Cc1ccc(CN2C3CCCC2CC(NC(=O)Nc2cccc(F)c2)C3)cc1` (centres unmarked) [MLS000709814-01], the AC50 stood at 10.6 µM. `CCN1CCN(c2cc(C)c3cc(NC(=O)/C=C/c4cccc(OC)c4OC)ccc3n2)CC1` [NCGC00103854-01]: the AC50 stood at 5.96 µM. With `CCN(CC)S(=O)(=O)c1ccc(N2CCCCC2)c(NC(=O)C2=COCCO2)c1` [MLS001150729-01] the figure was 6.68 µM; with `COc1ccccc1-c1ccc2ncc(Nc3ccc4[nH]ccc4c3)n2n1` [NCGC00412550-01], 4.33 µM; with `O=C(c1nc(-c2cccc(C(F)(F)F)c2)c2cnccn12)N1CCCC1` [NCGC00476432-01], 10.6 µM.

Turning to `CCN(CC)CCNC(=O)C12CCCC=C1N(Cc1ccccc1)C(=O)CC2` (centres unmarked) [NCGC00472142-01], the AC50 is 8.41 µM.

As to `Cc1ccc(N(Cc2cccs2)C(=O)C(C)Oc2ccc(Cl)c(C)c2)cc1` (centres unmarked) [NCGC00119071-01], the AC50 was determined as 7.5 µM. As for `Cn1cc(CN2CCCC(CO)(Cc3ccccc3)C2)cn1` (centres unmarked) [MLS000732297-01], the AC50 amounted to 5.96 µM. On to `O=C(Nc1ccccc1)[C@H]1O[C@H](CCN2CCN(c3ccc(F)cc3)CC2)CC[C@@H]1O` [NCGC00391966-01], for which the AC50 was determined as 10.9 µM.

Consider `O=C(c1cccs1)N1CCC(O)(c2ccccc2)[C@H](N2CCCC2)C1` (some centres unmarked) [NCGC00442580-01], for which the AC50 was 9.44 µM. Turning to `CCC(C(=O)NCCn1ccn2nc(-c3ccc(OC)cc3)cc2c1=O)c1ccccc1` (centres unmarked) [NCGC00456905-01], the AC50 amounted to 15 µM. Take `O=C1N=C(NC2CCCC2)C2(CCN(Cc3ccc(F)cc3)C2)N1c1cc(F)cc(F)c1` (centres unmarked) [NCGC00374305-01]: the AC50 stood at 10.6 µM. For the molecule `COc1ccc(Oc2nc(-c3ccccn3)nc3ccccc23)cc1` [MLS000769536-01], the AC50 turned out to be 2.99 µM. Take `COc1cccc(CNCCSc2nnnn2C)c1OCc1ccc(Cl)cc1` [NCGC00103033-01]: the AC50 was found to be 2.66 µM. With `COc1ccccc1C(=O)N1CCC2(CC1)OC(=O)N(Cc1ccccc1C#N)C2(C)c1ccccc1` (centres unmarked) [NCGC00415624-01] the figure was 15 µM; with `Cc1ccc(CNC(=O)c2ccc(N3CCC4(CC3)CC(c3cccc(Br)c3)=NO4)c(NC(=O)c3ccco3)c2)cc1` [MLS001074407-01], 8.41 µM; with `COc1cc(C#Cc2c(-c3cncn3C)n(C)c3ccc(-c4ccc(OC)c(OC)c4)cc23)cc(OC)c1` [MLS002391599-01], 4.73 µM. For the molecule `Cc1ccc(CN2CCCN(Cc3ccncc3)C(c3ccccc3)CC(=O)NCC2)o1` (centres unmarked) [NCGC00467180-01], the AC50 was found to be 7.5 µM. On to `COc1ccc(C)cc1NC(=O)N1CCCC2(C1)Nc1cccnc1N=C2NC1CCCC1` (centres unmarked) [NCGC00440441-01], for which the concentration at half-maximal activity (AC50) worked out at 6.68 µM.

Regarding `CC(C)OCCCNc1sc([S+](=O)([O-])c2ccccc2)nc1[S+](=O)([O-])c1ccc(Cl)cc1` [NCGC00116822-01], the AC50 came to 0.266 µM.

Consider `CCOc1ccc(CN2C(=O)c3ccccc3Sc3ccc(C(=O)N4CCC5(CC4)OCCO5)cc32)cc1` [NCGC00108218-01], for which the AC50 amounted to 4.22 µM. With `COC(=O)[C@H](Cc1ccc(OC)cc1)NC(=O)[C@H]1CN(C(=O)c2ccc(N(C)C)cc2)CCN1C(=O)c1cccs1` [NCGC00398661-01], the AC50 was 0.188 µM. With `OC(CNCc1cccc(Br)c1)c1ccccc1` (centres unmarked) [MLS000676112-01], the AC50 worked out at 5.96 µM. For `CC(C)(C)c1ccc(CN(Cc2ccccc2)C(c2ccccn2)c2nnnn2C(C)(C)C)cc1` (centres unmarked) [MLS000529130-01], the AC50 is 4.73 µM. `CCCCN(CC)CCNC(S)=Nc1ccc2nc(N3CCN(C)CC3)cc(C)c2c1` [MLS001197626-01]: the AC50 stood at 5.96 µM. For the molecule `Fc1ccc(N2CCN(Cc3cccn3-c3nnc(N4CCN(C5CCCCC5)CC4)s3)CC2)cc1` [NCGC00127052-01], the AC50 was found to be 11.9 µM. Turning to `CCOC(=O)c1nnn(-c2nonc2N)c1-c1ccc(Br)cc1` [MLS000727795-01], the AC50 was 2.66 µM.

As to `Cc1ccc(NC(=O)c2cnc(-c3ccccc3)nc2-c2ccncc2)c(Br)c1` [NCGC00426434-01], the AC50 came to 9.44 µM. For the molecule `CCOC(=O)c1c(N)sc2c1CCN(Cc1ccccc1)C2` [NCGC00159451-02], the AC50 amounted to 5.31 µM. Turning to `CN(Cc1ccccc1)Cc1ccccc1OCC(O)CN1CCCCC1` (centres unmarked) [NCGC00426411-01], the AC50 is 1.5 µM.

Turning to `COc1ccc(C(=O)N2CCC3(CC2)OC(=O)N(Cc2ccc(O)cc2)C3(C)c2ccccc2)cn1` (centres unmarked) [NCGC00415507-01], the AC50 is 6.68 µM. With `CCOC(=O)c1[nH]c(Cc2[nH]c(C(=O)OCC)c(C)c2CCC(=O)OC)c(CCC(=O)OC)c1C` [MLS000111116-01], the AC50 was 5.31 µM. As for `CCOC(=O)N1CCc2c(sc3c2c(=O)n(-c2ccccc2C(F)(F)F)c(=O)n3Cc2ccccc2C)C1` [NCGC00111905-01], the figure is 13.3 µM; as for `CCOc1ccc(CN(CCc2ccc3c(c2)OCO3)Cc2cc(OC)ccc2O)cc1` [NCGC00101752-01], 0.668 µM. Take `CCOC(=O)C1=Nc2ccccc2C1=[N+]=[N-]` [MLS000079382-01]: the AC50 worked out at 4.22 µM. Turning to `O=C1NC2(CCN(Cc3ccc(C(F)(F)F)cc3)CC2)COc2ccccc21` [NCGC00477447-01], the AC50 turned out to be 8.41 µM. For the molecule `CC1=C[C@@H](CN2CCCC2)[C@H](C(C)C)C[C@H]1Cc1nnc(-c2ccc([N+](=O)[O-])cc2)o1` [NCGC00395425-01], the AC50 was found to be 3.85 µM. Regarding `Cc1oc(-c2ccc(Cl)cc2)nc1Cn1c(=O)cc(-c2ccccc2)c2c(C)nn(C)c21` [NCGC00130157-01], the AC50 was found to be 9.44 µM. In the case of `COc1ccc2[nH]c(C)c(CCN(Cc3cccs3)C(S)=Nc3ccc(F)cc3)c2c1` [MLS000529849-01], the AC50 turned out to be 4.22 µM. On to `CCc1ccc(NC(=O)CSc2nc3[nH]nc(C)c3c(=N)n2-c2ccc(C)cc2)cc1` [NCGC00140694-01], for which the AC50 was 6.68 µM. On to `Cn1cccc1CN1C[C@@H](COc2ccncc2)[C@H](c2ccccn2)C1` [NCGC00468708-01], for which the AC50 worked out at 13.3 µM. With `N=c1c2c(n(Cc3ccc(F)cc3)c3c1CCC3)CCC2` [MLS000107591-01], the AC50 is 3.35 µM. On to `Cc1cc(Nc2cccc(C(F)(F)F)c2)nc2ccc(NC(=O)c3cncc(Br)c3)cc12` [NCGC00124348-01], for which the AC50 worked out at 2.37 µM. For `C[S+](=O)([O-])c1cccc(-c2cnc3[nH]cc(CC(=O)NCc4cccnc4)c3c2)c1` [NCGC00412364-01], the AC50 amounted to 9.68 µM.

Take `CN1CCC2(C1)CN(Cc1ccccc1)c1ccc(C(=O)Nc3ccc(F)cc3)cc12` (centres unmarked) [NCGC00419355-01]: the AC50 was 19.3 µM. Take `COc1ccc(-c2nnc(C[C@@H]3C[C@@H](C(C)C)[C@H](CNCc4cccnc4)C=C3C)o2)cc1` [NCGC00394182-01]: the AC50 amounted to 6.68 µM.

Consider `Nc1nonc1-n1nnc(C(=O)N/N=C/c2ccc(F)cc2)c1-c1ccc2c(c1)OCO2` [MLS001142639-01], for which the AC50 stood at 0.335 µM. As to `COc1ccc(NC(=O)c2c(C)oc3ccc(O)c(CN4CCN(Cc5ccccc5)CC4)c23)cc1` [NCGC00115648-01], the AC50 was determined as 2.66 µM. As for `Cc1ccc(NC(=O)Cn2c(=O)n(-c3ccc(C)cc3)c(=O)c3ccc(C(=O)NCc4ccccc4Cl)cc32)cc1` [NCGC00108700-01], the figure is 5.31 µM; as for `Cc1sc2[nH]c(-c3ccccn3)nc(=O)c2c1-c1ccccc1` [MLS000760132-01], 13.3 µM. For `COc1ccc2nc(N(Cc3cccnc3)C(=O)CCc3ccccc3)sc2c1` [NCGC00136611-01], the AC50 was 6.68 µM. Consider `CCC1=Nc2cc(C(=O)NCc3ccco3)ccc2Sc2ccc(C)cc21` [MLS000583106-01], for which the AC50 came to 8.41 µM. In the case of `Cc1ccc(C(=O)N/N=C/c2ccc([N+](=O)[O-])s2)cc1` [MLS000519463-01], the AC50 turned out to be 5.96 µM. With `COCCNC(=O)c1ccc(OC2CCN(C/C=C/c3ccc(F)cc3)CC2)c(Cl)c1` [NCGC00426935-01], the AC50 was determined as 10.6 µM. Regarding `Cn1nc(C2CCCCC2)cc1[C@H]1CN2CC[C@H]1C[C@@H]2CNC(=O)COc1ccccc1` [NCGC00399666-01], the half-maximal activity concentration (AC50) was 15 µM. As for `COc1ccc(-n2nc3ccc(NC(=O)c4ccc(-c5cc(Cl)ccc5Cl)o4)cc3n2)cc1` [NCGC00098498-01], the figure is 4.22 µM; as for `Cc1ccc(C(=O)c2cc(C)sc2NC(=O)CN2CCN(C(=O)c3ccco3)CC2)cc1` [MLS000073677-01], 7.5 µM.

Turning to `CCC(=O)C1=C(c2cccc([N+](=O)[O-])c2)N(C(=O)CC)n2c(nnc2-c2ccccc2)S1` [NCGC00137270-01], the AC50 stood at 5.31 µM.

Turning to `COc1ccc(-c2cnc3[nH]cc(CC(=O)NCc4cccnc4)c3c2)cc1OC` [NCGC00412448-01], the AC50 stood at 1.53 µM. With `COc1cncc(CN2CCC3(CC2)OC(=O)N(Cc2ccc(O)cc2)C3(C)c2ccccc2)c1` (centres unmarked) [NCGC00415566-01] the figure was 9.44 µM.
